Results published in patent US20220000971A1, “METHODS AND COMPOUNDS FOR TARGETING SORTILIN RECEPTORS AND INHIBITING VASCULOGENIC MIMICRY” (TRANSFERT PLUS, S.E.C., priority 2018, published 2022).
Several values for one entry are separate records, joined by “and”; a condition that tells them apart may be missing. Identical values can stand only once. Entries after “also recorded” stand apart in the source; their conditions may differ. Like-named read-outs stand apart in the source and are kept apart here. Where a SMILES comes first, the peptide text is derived from it. [ ]: non-standard residue; d: D form. The star is where a group is joined. X1 = CC(=O)O[C@@]12CO[C@@H]1C[C@H](O)[C@@]1(C)C(=O)[C@H](O)C3=C(C)[C@@H](OC(=O)[C@H](OC(=O)CCC(=O)*)[C@@H](NC(=O)OC(C)(C)C)c4ccccc4)C[C@@](O)([C@@H](OC(=O)c4ccccc4)[C@H]21)C3(C)C; Nle = CCCC[C@H](N)C(=O)O

How the values were obtained:
[1] = test system: tubulin; assay: Tubulin / microtubule polymerization; type: biochemical
Method: FIGS. 23A and 23B depict the DoceKA impact on tubulin polymerization. More particularly, FIG. 23A illustrates cells treated with vehicle (DMSO), 2 μM Docetaxel or 1 μM DoceKA for 24 hours, fixed and immunostained with anti-a-tubulin antibody and imaged using confocal microscopy. […] FIG. 23B illustrates that in a fluorescence-based polymerization assay, the effect of Docetaxel (2 μM) and DoceKA (1 μM) on polymerization of purified tubulin was examined in vitro. Paclitaxel (2 μM) and Vinblastine (2 μM) were added as controls for tubulin-polymerizing and tubulin-depolymerizing agents, respectively. Tubulin assembly into microtubules was determined by an increase in fluorescence emission (Ex. 340-360 nm±20 nm; Em. 410-460 nm±20 nm).

[2] = Blood cell / neutrophil counts after treatment; type: in vivo, nude mice
From the text: FIG. 27A illustrates the effect on lymphocytes after 3 treatments with different concentrations of Docetaxel or DoceKA. FIG. 27B illustrates the effect on platelets after 3 treatments with different concentrations of Docetaxel or DoceKA. FIG. 27C illustrates the effect on neutrophils after 3 treatments with different concentrations of Docetaxel or DoceKA. IP means intraperitoneal administration, while IV means intravenous delivery.
FIG. 28 depicts the preliminary toxicity data on DoceKA, specifically, the neutrophils count (g/L) after DoceKA treatments at different dosages of Docetaxel or DoceKA.

[3] = test system: MDA-MB-231 cells; assay: MTT cell proliferation assay; type: cell-based
Method: (§1) MDA-MB-231 cells were used as a TNBC cell model for in vitro and in vivo xenograft (CD1 nude mice) assays. Cell migration was assessed using the ×CELLigence real-time system, whereas MTT assay was used for cell proliferation analysis. Apoptosis biomarkers expression was assessed by immunoblotting.

[4] = test system: MDA-MB-231 cells; assay: Real-time cell migration, xCELLigence (MDA-MB-231); type: cell-based
Method: (§2) In vitro vasculogenic mimicry of cancer cells was assessed using a Matrigel tube formation assay. In brief, each well of a 96-well plate was pre-coated with Matrigel. ES-2 ovarian cancer or MDA-MB-231 TNBC cell suspensions were seeded on top of Matrigel. 3D-tubular structures were analyzed and quantified using Wimasis Analysis software. Real-time cell migration was evaluated using the ×CELLigence system. Sortilin gene silencing was performed with specific siRNA. Effects of Doxorubicin-KA-peptide conjugate (DoxKA) KBA-106 represented by formula Acetyl-GVRAK(doxorubicin)AGVRN(Nle)FK(doxorubicin)SESY (Formula (XXVIII)) and Docetaxel-KA-peptide conjugate (DoceKA) represented by formula Acetyl-GVRAK(docetaxel)AGVRN(Nle)FK(docetaxel)SESY (Formula (XXIII)) targeting Sortilin on vasculogenic mimicry and cell migration were determined.
as §1

[5] = test system: ES-2 ovarian cancer cells; assay: In vitro vasculogenic mimicry, Matrigel tube formation assay (ES-2); type: cell-based, human
[6] = test system: MDA-MB-231 cells; assay: Cell death / apoptosis (Annexin V-FITC/PI); type: cell-based
Method: MDA-MB-231 cells treated for 5 hours with control (vehicle) or with increasing concentrations of Docetaxel or DoceKA. Cells were then harvested and the rate of apoptosis was determined following staining with Annexin V-FITC and propidium iodide (PI). Cells were analyzed by flow cytometry.

[7] = test system: MDA-MB-231 xenograft tumor; assay: MDA-MB-231 xenograft tumor model; type: in vivo, CD1 nude mice; conditions: murine MDA-MB-231 xenograft
Method: as §1

[8] = DoceKA pharmacokinetics in mice (plasma, UPLC/MS); type: in vivo, CD-1 mice; conditions: for half-life: iv, 50 mg/kg
Method: FIG. 29A illustrates the plasma concentration for DoceKA and released Docetaxel (BDL) at progressive time intervals. FIG. 29B illustrates the PK in CD-1 mice. […] Plasma was collected at different time points. DoceKA and released Docetaxel were extracted with acetonitrile. DoceKA and released Docetaxel, were quantified by UPLC/MS using Paclitaxel as the internal standard: 2 μl and 10 μl of supematants were injected for DoceKA and Docetaxel directly without lyophilization.
PK data on Docetaxel were obtained from refs. 50 and 51. PK analysis for DoceKA was carried out using PK solutions software. Docetaxel PK in mice is biphasic and linear between 13-62 mg/kg. […] Both have similar half-lives. DoceKA has a lower clearance (CL) and Volume of distribution (Vd). These preliminary data need to be confirmed with more data (shorter and longer time points).

[9] = test system: IL-6, Survivin, Bcl-xL and mutant p53; assay: Immunoblotting of pro-survival biomarkers; type: cell-based; conditions: MDA-MB-231
From the text: FIGS. 22A and 22B illustrate the molecular mechanism of cell death induction by DoceKA in MDA-MB-231 cells. FIG. 22A illustrates the immunoblotting experiment showing the expression level of IL-6, Survivin, Bcl-xi and mutated p53 in MDA-MB-231 cell after treatment with Docetaxel and DoceKA. GAPDH was used as a control. FIG. 22B data are representative of three independent experiments and the bar graphs show the densitometric quantification of IL-6, Survivin, Bcl-xL and p53 expression as compared to GAPDH. The mean value of the control group was set to be 1.0.
as §1

[10] = test system: MDA-MB-231 TNBC cells; assay: In vitro vasculogenic mimicry, Matrigel tube formation assay (MDA-MB-231); type: cell-based; conditions: MDA-MB231; FIG. 43
Method: as §2

[11] = test system: ES-2 ovarian cancer cells; assay: Real-time cell migration, xCELLigence (ES-2); type: cell-based, human
Method: as §2

[12] = test system: MDA-MB-231 breast cancer cells; assay: [3H]-Thymidine Incorporation assay; type: cell-based; conditions: Homo sapiens, GraphPad Prism
Method: FIG. 19 depicts the in vitro anticancer properties of DoceKA against MDA-MB-231 breast cancer cells as determined using the [3H]-Thymidine Incorporation assay. Incorporated [3H]-Thymidine was plotted for each drug concentration. IC50 values (nM) were calculated using the GraphPad Prism software. […] is a set of graphs depicting the cell-cycle distribution of MDA-MB231 cells determined based on cellular DNA content using flow cytometry after 24 hours of treatment with 2 μM Docetaxel or 1 μM DoceKA.

[13] = cited from earlier work
[14] = CD-1, mouse, plasma, DoceKA 50 mg/kg, intravenous, preliminary data

CCCC[C@H](NC(=O)[C@H](CC(N)=O)NC(=O)[C@H](CCCNC(=N)N)NC(=O)[C@@H](NC(=O)CNC(=O)[C@H](C)NC(=O)[C@H](CCCCNC(=O)CCC(=O)O[C@@H](C(=O)O[C@H]1C[C@@]2(O)[C@@H](OC(=O)c3ccccc3)[C@@H]3[C@]4(OC(C)=O)CO[C@@H]4C[C@H](O)[C@@]3(C)C(=O)[C@H](O)C(=C1C)C2(C)C)[C@@H](NC(=O)OC(C)(C)C)c1ccccc1)NC(=O)[C@H](C)NC(=O)[C@H](CCCNC(=N)N)NC(=O)[C@@H](NC(=O)CNC(C)=O)C(C)C)C(C)C)C(=O)N[C@@H](Cc1ccccc1)C(=O)N[C@@H](CCCCNC(=O)CCC(=O)O[C@@H](C(=O)O[C@H]1C[C@@]2(O)[C@@H](OC(=O)c3ccccc3)[C@@H]3[C@]4(OC(C)=O)CO[C@@H]4C[C@H](O)[C@@]3(C)C(=O)[C@H](O)C(=C1C)C2(C)C)[C@@H](NC(=O)OC(C)(C)C)c1ccccc1)C(=O)N[C@@H](CO)C(=O)N[C@@H](CCC(=O)O)C(=O)N[C@@H](CO)C(=O)N[C@@H](Cc1ccc(O)cc1)C(=O)O [DoceKA, Acetyl-GVRAK(docetaxel)AGVRN(Nle)FK(docetaxel)SESY] (Ac-GVRAK(X1)AGVRN[Nle]FK(X1)SESY-OH)
microtubules polymerization [1]: altered microtubules polymerization
neutrophils count ([2]; after six injections): remained within normal limits
effect on blood cells (lymphocytes, platelets, neutrophils) ([2]; nude mice, 3 treatments): absence of effect
cell proliferation [3]: potent anti-proliferative and anti-migratory activities
cell migration [4]: inhibited; also recorded: potent anti-proliferative and anti-migratory activities
concentration at which total number of loops and total tube length are inhibited ([5]; ES-2 on Matrigel): low pM concentration; also recorded: very low pM concentration; also recorded: inhibited at low nM concentrations
vasculogenic mimicry inhibition compared to unconjugated drug ([5]; ES-2 on Matrigel, 12 hrs, equivalent concentration of free drug (Docetaxel 600 pM)): stronger inhibition of vasculogenic mimicry than unconjugated free drugs; also recorded: stronger inhibition of 3Dtubulare structures than Docetaxel alone
IC50 values for vasculogenic mimicry inhibition ([5]; Example 2, ovarian cancer and TNBC cells): low nM to pM
cell death induction compared to free Docetaxel [6]: faster and higher cell death mechanisms
tumor regression and survival compared to Docetaxel [7]: greater tumor regression capacity with a prolonged survival
half-life ([8]; CD-1, mouse, plasma, DoceKA 50 mg/kg, intravenous, preliminary data, read-out: t½ adsorption distribution): 6 to 20 min
half-life ([8]; CD-1, mouse, plasma, DoceKA 50 mg/kg, intravenous, preliminary data, read-out: t½ elimination): 90 to 150 min
AUC [8, 14]: 614 µM·h and 2.3e+06 ng·h/mL
Cmax [8, 14]: 1.6e+06 ng/mL and 437 µM
Vd [8, 14]: 0.04 L/kg
clearance [8, 14]: 0.3 mL/min/kg
plasma concentration of released Docetaxel ([8]; DoceKA 20 mg/kg intravenously, at 0.083, 0.25 and 4 hours): below the limit of quantification
AUC (tissue exposure) of DoceKA compared to Docetaxel ([8]; higher for DoceKA): about 29 fold
Cmax of DoceKA compared to Docetaxel ([8]; higher, compared to Docetaxel (20 mg/kg)): about 18 fold
expression of pro-survival biomarkers [9]: down-regulation of IL-6, Survivin, Bcl-xL and mutant p53
vasculogenic mimicry inhibition compared to Docetaxel alone [10]: stronger inhibition of vasculogenic mimicry
cell migration [11]: inhibited

CC(=O)O[C@@]12CO[C@@H]1C[C@H](O)[C@@]1(C)C(=O)[C@H](O)C3=C(C)[C@@H](OC(=O)[C@H](O)[C@@H](NC(=O)OC(C)(C)C)c4ccccc4)C[C@@](O)([C@@H](OC(=O)c4ccccc4)[C@H]21)C3(C)C [Docetaxel, docetaxel]
IC50 [12]: 0.68 nM
neutrophils count ([2]; four days after a single injection at the maximum tolerable dose): drastic reduction in neutrophils count
CL ([13]; Docetaxel 10 mg/kg, mice): 35 mL/min/kg
Vd ([13]; Docetaxel 10 mg/kg, mice): 2.2 to 5 L/kg
t½ adsorption distribution ([13]; Docetaxel 10 mg/kg, mice): 7 min
t½ elimination ([13]; Docetaxel 10 mg/kg, mice): 72 min
Reported Cmax ([13]; Docetaxel dosed at 20 mg/kg): about 20 μg/ml
Cmax ([13]; Docetaxel dosed at 20 mg/kg, read-out: Reported Cmax): ~25 µM
